Columns and labels:
E. faecalis 945 = experiment: agar diffusion test (Test System II, multi-resistant germs); type: cell-based, Enterococcus faecalis; parameters: key: r = resistant (no detectable zone of inhibition)
Description: (§1) The test substances are deposited in stepped quantities (10 μg, 50 μg, 100 μg) onto active ingredient carriers (sensi-discs). For this purpose, the test substances are dissolved in methanol or A. dest. according to their solubility. Each inoculated plate is fitted with 3 test sheets.
(§2) Test System II (Effect Against Multi-Resistant Germs)
(§3) For this purpose, bacteria is cultivated on Müller-Hinton-Agar II plates.
(§4) With 1-1.5 ml physiological saline solution, a bacteria suspension of McFarland 0.5 (corresponds to a bacteria density of 150×10^6 germs) is produced. Then, with a sterile glass rod, a small drop of bacteria suspension is placed on the Müller-Hinton-Agar plate and coated in three layers (vertical, horizontal, and transverse). Thereafter, the sensi-discs with the novel semi-synthetic test substances are placed on top. The fitted plates are incubated for 18-20 hours at 37° C. After incubation, the diameters of the zones of inhibition are read as a measure for the antimicrobial activity of the novel semi-synthetic test substances.

S. epidermidis 125 = experiment: as above; type: cell-based, Staphylococcus epidermidis
Description: as §1, §2, §3, §4

S. aureus ATCC 6538 = experiment: as above; type: cell-based, Staphylococcus aureus
Description: as §1, §2, §3, §4

S. aureus 38418 = experiment: as above; type: cell-based, Staphylococcus aureus
Description: as §1, §2, §3, §4

[1] = tested on: Bacillus megaterium SBUG 1152; experiment: agar diffusion test (Test System 1, antimicrobial effect); type: cell-based
Description: (§5) Test System 1 (Antimicrobial Effect)
(§6) The test germs Escherichia coli SBUG 1135 and Bacillus megaterium SBUG 1152 are drawn overnight (17 hours at 37° C.) in 5 ml nutrient medium II. The incubation is performed in a shaking incubator (INFORS AG CH 4103, Bottmingen, Switzerland) at a shaking frequency of 180 rpm.
(§7) After 17 h incubation time, Escherichia coli has reached a cell density of ca. 2.4×10^10 cells/ml and Bacillus megaterium a cell density of ca. 2.1×10^8 cells/ml.
(§8) The seeding of bacteria in agar is selected so that, dense, but not confluent individual colonies develop after the incubation.
Bacillus megaterium: 0.1 ml of non-diluted overnight culture (ÜN) in 10 ml nutrient agar corresponds to a cell count of 10^6.
(§9) The inoculated nutrient agar is set in sterile Petri dishes and left standing for a few minutes for drying.
as §1
(§10) After a 20-hour incubation time at 37° C., the zones of inhibition around the individual test sheets could be measured. The diameter of the zone of inhibition is specified in mm.

S. aureus 34289 = experiment: agar diffusion test (Test System II, multi-resistant germs); type: cell-based, Staphylococcus aureus; parameters: key: r = resistant (no detectable zone of inhibition)
Description: as §1, §2, §3, §4

S. aureus 36881 = experiment: as above; type: cell-based, Staphylococcus aureus; parameters: key: r = resistant (no detectable zone of inhibition)
Description: as §1, §2, §3, §4

S. aureus 526 = experiment: as above; type: cell-based, Staphylococcus aureus; parameters: key: r = resistant (no detectable zone of inhibition)
Description: as §1, §2, §3, §4

S. aureus 33490 = experiment: as above; type: cell-based, Staphylococcus aureus; parameters: key: r = resistant (no detectable zone of inhibition)
Description: as §1, §2, §3, §4

S. aureus 39105 = experiment: as above; type: cell-based, Staphylococcus aureus; parameters: key: r = resistant (no detectable zone of inhibition)
Description: as §1, §2, §3, §4

S. aureus 520 = experiment: as above; type: cell-based, Staphylococcus aureus; parameters: key: r = resistant (no detectable zone of inhibition)
Description: as §1, §2, §3, §4

[2] = tested on: S. aureus North Germany strain; experiment: as above; type: cell-based, Staphylococcus aureus; parameters: key: r = resistant (no detectable zone of inhibition)
Description: as §1, §2, §3, §4

B. subtilis AWD 166 = experiment: agar diffusion test (antimicrobial effect); type: cell-based, Bacillus subtilis
Description: as §8, §9, §1, §10

[3] = tested on: Escherichia coli SBUG 1135; experiment: agar diffusion test (Test System 1, antimicrobial effect); type: cell-based; parameters: key: r = resistant (no detectable zone of inhibition)
Description: as §5, §6, §7, §8
Escherichia coli: the ÜN is diluted 1:100 with physiological saline solution, of which 0.1 ml is converted into 10 ml nutrient agar. That corresponds to a cell count of 10^6.
as §9, §1, §10

[4] = tested on: Staphylococcus aureus 315; experiment: agar diffusion test (Test System II, multi-resistant germs); type: cell-based; parameters: key: r = resistant (no detectable zone of inhibition)
Description: as §1, §2, §3, §4

[5] = tested on: Enterococcus faecalis 769; experiment: as above; type: cell-based; parameters: key: r = resistant (no detectable zone of inhibition)
Description: as §1, §2, §3, §4

S. epidermidis 847 = experiment: as above; type: cell-based, Staphylococcus epidermidis; parameters: key: r = resistant (no detectable zone of inhibition)
Description: as §1, §2, §3, §4

S. epidermidis 1071 = experiment: as above; type: cell-based, Staphylococcus epidermidis; parameters: key: r = resistant (no detectable zone of inhibition)
Description: as §1, §2, §3, §4

S. epidermidis 1068 = experiment: as above; type: cell-based, Staphylococcus epidermidis; parameters: key: r = resistant (no detectable zone of inhibition)
Description: as §1, §2, §3, §4

S. epidermidis 563 = experiment: as above; type: cell-based, Staphylococcus epidermidis; parameters: key: r = resistant (no detectable zone of inhibition)
Description: as §1, §2, §3, §4

Measured: Diameter of zone of inhibition

7-[2-(2-ethoxycarbonyl-3,6-dioxocyclohexa-1,4-dienylamino)-2-phenyl-acetylamino]-desacetoxycephalosporanic acid [1h]
16 mm: S. aureus 33490; Quantity n [μmol] 0.09 | S. epidermidis 1068; Quantity n 0.19
14 mm: S. aureus 39105; Quantity n 0.19 | [3]; Quantity n 0.09 | S. epidermidis 1071; Quantity n 0.09 | S. epidermidis 563; Quantity n 0.09
20 mm: S. aureus ATCC 6538; Quantity n 0.019 | S. aureus 33490; Quantity n [μmol] 0.19 | S. epidermidis 1071; Quantity n 0.19
22 mm: S. aureus 38418; Quantity n [mol] 0.09 | B. subtilis AWD 166; Quantity n 0.019
28 mm: S. epidermidis 125; Quantity n 0.19 | S. aureus ATCC 6538; Quantity n 0.09 | S. aureus 38418; Quantity n [mol] 0.19 | [1]; Quantity n 0.09
18 mm: [1]; Quantity n 0.019 | [3]; Quantity n 0.19 | S. epidermidis 847; Quantity n [mol] 0.19 | S. epidermidis 563; Quantity n 0.19
12 mm: S. epidermidis 125; Quantity n 0.019 | S. aureus 38418; Quantity n [mol] 0.019 | S. aureus 36881; Quantity n 0.19 | [2]; Quantity n 0.19 | S. epidermidis 847; Quantity n [mol] 0.09
r: E. faecalis 945; Quantity n 0.019 | E. faecalis 945; Quantity n 0.09 | E. faecalis 945; Quantity n 0.19 | S. aureus 34289; Quantity n [mol] 0.019 | S. aureus 34289; Quantity n [mol] 0.09 | S. aureus 34289; Quantity n [mol] 0.19 | S. aureus 36881; Quantity n 0.019 | S. aureus 36881; Quantity n 0.09 | S. aureus 526; Quantity n 0.019 | S. aureus 526; Quantity n 0.09 | S. aureus 526; Quantity n 0.19 | S. aureus 33490; Quantity n [μmol] 0.019 | S. aureus 39105; Quantity n 0.019 | S. aureus 520; Quantity n [mol] 0.019 | S. aureus 520; Quantity n [mol] 0.09 | S. aureus 520; Quantity n [mol] 0.19 | [2]; Quantity n 0.019 | [3]; Quantity n 0.019 | [4]; Quantity n 0.019 | [4]; Quantity n 0.09 | [5]; Quantity n 0.019 | [5]; Quantity n 0.09 | [5]; Quantity n 0.19 | S. epidermidis 847; Quantity n [mol] 0.019 | S. epidermidis 1071; Quantity n 0.019 | S. epidermidis 1068; Quantity n 0.019 | S. epidermidis 563; Quantity n 0.019
30 mm: S. aureus ATCC 6538; Quantity n 0.19 | B. subtilis AWD 166; Quantity n 0.09
32 mm: [1]; Quantity n 0.19 | B. subtilis AWD 166; Quantity n 0.19
24 mm: S. epidermidis 125; Quantity n 0.09
8 mm: S. aureus 39105; Quantity n 0.09 | [2]; Quantity n 0.09
10 mm: [4]; Quantity n 0.19 | S. epidermidis 1068; Quantity n 0.09

COC(=O)C1=C(NC(C(=O)NC2C(=O)N3C(C(=O)O)=C(C)CSC23)c2ccc(O)cc2)C(=O)C=CC1=O (stereo not drawn) [1c, 7-[2-(4-hydroxyphenyl)-2-(2-methoxycarbonyl-3,6-dioxocyclohexa-1,4-dienylamino)-acetylamino]-desacetoxycephalosporanic acid]
14 mm: S. aureus 36881; Quantity n 0.19 | S. aureus 33490; Quantity n [μmol] 0.1 | [2]; Quantity n 0.19 | [3]; Quantity n 0.1 | S. epidermidis 847; Quantity n [mol] 0.1 | S. epidermidis 1071; Quantity n 0.1 | S. epidermidis 1068; Quantity n 0.1 | S. epidermidis 563; Quantity n 0.1
20 mm: S. aureus 33490; Quantity n [μmol] 0.19 | S. epidermidis 1071; Quantity n 0.19 | S. epidermidis 1068; Quantity n 0.19 | S. epidermidis 563; Quantity n 0.19
26 mm: S. aureus ATCC 6538; Quantity n 0.1
22 mm: S. aureus 38418; Quantity n [mol] 0.1 | [1]; Quantity n 0.019 | B. subtilis AWD 166; Quantity n 0.019
10 mm: S. aureus 38418; Quantity n [mol] 0.019 | [2]; Quantity n 0.1
24 mm: S. epidermidis 125; Quantity n 0.1
28 mm: S. epidermidis 125; Quantity n 0.19 | S. aureus 38418; Quantity n [mol] 0.19
30 mm: S. aureus ATCC 6538; Quantity n 0.19 | [1]; Quantity n 0.1 | B. subtilis AWD 166; Quantity n 0.1
32 mm: [1]; Quantity n 0.19 | B. subtilis AWD 166; Quantity n 0.19
r: E. faecalis 945; Quantity n 0.019 | E. faecalis 945; Quantity n 0.1 | E. faecalis 945; Quantity n 0.19 | S. aureus 34289; Quantity n [mol] 0.019 | S. aureus 34289; Quantity n [mol] 0.1 | S. aureus 34289; Quantity n [mol] 0.19 | S. aureus 36881; Quantity n 0.019 | S. aureus 36881; Quantity n 0.1 | S. aureus 526; Quantity n 0.019 | S. aureus 526; Quantity n 0.1 | S. aureus 526; Quantity n 0.19 | S. aureus 33490; Quantity n [μmol] 0.019 | S. aureus 39105; Quantity n 0.019 | S. aureus 39105; Quantity n 0.1 | S. aureus 520; Quantity n [mol] 0.019 | S. aureus 520; Quantity n [mol] 0.1 | S. aureus 520; Quantity n [mol] 0.19 | [2]; Quantity n 0.019 | [3]; Quantity n 0.019 | [4]; Quantity n 0.019 | [4]; Quantity n 0.1 | [5]; Quantity n 0.019 | [5]; Quantity n 0.1 | [5]; Quantity n 0.19 | S. epidermidis 847; Quantity n [mol] 0.019 | S. epidermidis 1071; Quantity n 0.019 | S. epidermidis 1068; Quantity n 0.019 | S. epidermidis 563; Quantity n 0.019
18 mm: S. aureus ATCC 6538; Quantity n 0.019 | [3]; Quantity n 0.19 | S. epidermidis 847; Quantity n [mol] 0.19
12 mm: S. epidermidis 125; Quantity n 0.019 | S. aureus 39105; Quantity n 0.19 | [4]; Quantity n 0.19
